Results reported in paper PMC10408569, “Recruitment of hexahydroquinoline as anticancer scaffold targeting inhibition of wild and mutants EGFR (EGFR^WT, EGFR^T790M, and EGFR^L858R)” (Journal of Enzyme Inhibition and Medicinal Chemistry, 2023).

How the values were obtained:
[1] = test system: MOLT-4; assay: NCI-60 anticancer screening (SRB); assay type: cell-based; conditions: Homo sapiens; MOLT-4, leukemia; one dose 10 μM; read-out: Growth Inhibition Percentage (GI %)
[2] = test system: IGROV1; assay: NCI-60 anticancer screening (SRB); assay type: cell-based; conditions: Homo sapiens, IGROV-1; IGROV1, ovarian cancer; one dose 10 μM; read-out: Growth Inhibition Percentage (GI %)
[3] = test system: UO-31; assay: NCI-60 anticancer screening (SRB); assay type: cell-based; conditions: Homo sapiens; UO-31, renal cancer; one dose 10 μM; read-out: Growth Inhibition Percentage (GI %)
[4] = molecular target: EGFR^WT (Homo sapiens, UniProt P00533); assay: EGFR kinase inhibitory assay (HTRF)
[5] = test system: NCI-H226; assay: NCI-60 anticancer screening (SRB); assay type: cell-based; conditions: Homo sapiens; NCI-H226, NSC lung cancer; one dose 10 μM; read-out: Growth Inhibition Percentage (GI %)
[6] = test system: ACHN; assay: NCI-60 anticancer screening (SRB); assay type: cell-based; conditions: Homo sapiens, renal cancer, one dose 10 μM, read-out: Growth Inhibition Percentage (GI %)
[7] = test system: MCF7; assay: NCI-60 anticancer screening (SRB); assay type: cell-based; conditions: Homo sapiens; MCF7, breast cancer; one dose 10 μM; read-out: Growth Inhibition Percentage (GI %)
[8] = test system: BT-549; assay: NCI-60 anticancer screening (SRB); assay type: cell-based; conditions: Homo sapiens; BT-549, breast cancer; one dose 10 μM; read-out: Growth Inhibition Percentage (GI %)
[9] = test system: HOP-92; assay: NCI-60 anticancer screening (SRB); assay type: cell-based; conditions: Homo sapiens; HOP-92, NSC lung cancer; one dose 10 μM; read-out: Growth Inhibition Percentage (GI %)
[10] = test system: OVCAR-5; assay: NCI-60 anticancer screening (SRB); assay type: cell-based; conditions: Homo sapiens; OVCAR-5, ovarian cancer; one dose 10 μM; read-out: Growth Inhibition Percentage (GI %)
[11] = test system: CCRF-CEM; assay: NCI-60 anticancer screening (SRB); assay type: cell-based; conditions: Homo sapiens, leukemia, one dose 10 μM, read-out: Growth Inhibition Percentage (GI %)
[12] = test system: HS 578T; assay: NCI-60 anticancer screening (SRB); assay type: cell-based; conditions: Homo sapiens; HS 578T, breast cancer; one dose 10 μM; read-out: Growth Inhibition Percentage (GI %)
[13] = test system: HCT-116; assay: NCI-60 anticancer screening (SRB); assay type: cell-based; conditions: Homo sapiens; HCT-116, colon cancer; one dose 10 μM; read-out: Growth Inhibition Percentage (GI %)
[14] = test system: OVCAR-3; assay: NCI-60 anticancer screening (SRB); assay type: cell-based; conditions: Homo sapiens; OVCAR-3, ovarian cancer; one dose 10 μM; read-out: Growth Inhibition Percentage (GI %)
[15] = test system: OVCAR-8; assay: NCI-60 anticancer screening (SRB); assay type: cell-based; conditions: Homo sapiens; OVCAR-8, ovarian cancer; one dose 10 μM; read-out: Growth Inhibition Percentage (GI %)
[16] = test system: MALME-3M; assay: NCI-60 anticancer screening (SRB); assay type: cell-based; conditions: Homo sapiens, melanoma, one dose 10 μM, read-out: Growth Inhibition Percentage (GI %)
[17] = test system: K-562; assay: NCI-60 anticancer screening (SRB); assay type: cell-based; conditions: Homo sapiens, K562; K-562, leukemia; one dose 10 μM; read-out: Growth Inhibition Percentage (GI %)
[18] = test system: UACC-257; assay: NCI-60 anticancer screening (SRB); assay type: cell-based; conditions: Homo sapiens; UACC-257, melanoma; one dose 10 μM; read-out: Growth Inhibition Percentage (GI %)
[19] = test system: LOX IMVI; assay: NCI-60 anticancer screening (SRB); assay type: cell-based; conditions: Homo sapiens, melanoma, one dose 10 μM, read-out: Growth Inhibition Percentage (GI %)
[20] = test system: SK-MEL-2; assay: NCI-60 anticancer screening (SRB); assay type: cell-based; conditions: Homo sapiens; SK-MEL-2, melanoma; one dose 10 μM; read-out: Growth Inhibition Percentage (GI %)
[21] = test system: U251; assay: NCI-60 anticancer screening (SRB); assay type: cell-based; conditions: Homo sapiens, U-251; U251, CNS cancer; one dose 10 μM; read-out: Growth Inhibition Percentage (GI %)
[22] = test system: SW-620; assay: NCI-60 anticancer screening (SRB); assay type: cell-based; conditions: Homo sapiens; SW-620, colon cancer; one dose 10 μM; read-out: Growth Inhibition Percentage (GI %)
[23] = test system: COLO 205; assay: NCI-60 anticancer screening (SRB); assay type: cell-based; conditions: Homo sapiens; COLO 205, colon cancer; one dose 10 μM; read-out: Growth Inhibition Percentage (GI %)
[24] = test system: PC-3; assay: NCI-60 anticancer screening (SRB); assay type: cell-based; conditions: Homo sapiens; PC-3, prostate cancer; one dose 10 μM; read-out: Growth Inhibition Percentage (GI %)
[25] = test system: MDA-MB-468; assay: NCI-60 anticancer screening (SRB); assay type: cell-based; conditions: Homo sapiens; MDA-MB-468, breast cancer; one dose 10 μM; read-out: Growth Inhibition Percentage (GI %)
[26] = test system: SK-OV-3; assay: NCI-60 anticancer screening (SRB); assay type: cell-based; conditions: Homo sapiens; SK-OV-3, ovarian cancer; one dose 10 μM; read-out: Growth Inhibition Percentage (GI %)
[27] = test system: SR; assay: NCI-60 anticancer screening (SRB); assay type: cell-based; conditions: Homo sapiens, leukemia, one dose 10 μM, read-out: Growth Inhibition Percentage (GI %)
[28] = test system: A498; assay: NCI-60 anticancer screening (SRB); assay type: cell-based; conditions: Homo sapiens; A498, renal cancer; one dose 10 μM; read-out: Growth Inhibition Percentage (GI %)
[29] = molecular target: EGFR^T790M (Homo sapiens, UniProt P00533, T790M); assay: biochemical
[30] = test system: OVCAR-4; assay: NCI-60 anticancer screening (SRB); assay type: cell-based; conditions: Homo sapiens; OVCAR-4, ovarian cancer; one dose 10 μM; read-out: Growth Inhibition Percentage (GI %)
[31] = molecular target: EGFR^L858R (Homo sapiens, UniProt P00533, L858R); assay: biochemical
Sequence of EGFR^L858R (P00533 25-1210 L858R): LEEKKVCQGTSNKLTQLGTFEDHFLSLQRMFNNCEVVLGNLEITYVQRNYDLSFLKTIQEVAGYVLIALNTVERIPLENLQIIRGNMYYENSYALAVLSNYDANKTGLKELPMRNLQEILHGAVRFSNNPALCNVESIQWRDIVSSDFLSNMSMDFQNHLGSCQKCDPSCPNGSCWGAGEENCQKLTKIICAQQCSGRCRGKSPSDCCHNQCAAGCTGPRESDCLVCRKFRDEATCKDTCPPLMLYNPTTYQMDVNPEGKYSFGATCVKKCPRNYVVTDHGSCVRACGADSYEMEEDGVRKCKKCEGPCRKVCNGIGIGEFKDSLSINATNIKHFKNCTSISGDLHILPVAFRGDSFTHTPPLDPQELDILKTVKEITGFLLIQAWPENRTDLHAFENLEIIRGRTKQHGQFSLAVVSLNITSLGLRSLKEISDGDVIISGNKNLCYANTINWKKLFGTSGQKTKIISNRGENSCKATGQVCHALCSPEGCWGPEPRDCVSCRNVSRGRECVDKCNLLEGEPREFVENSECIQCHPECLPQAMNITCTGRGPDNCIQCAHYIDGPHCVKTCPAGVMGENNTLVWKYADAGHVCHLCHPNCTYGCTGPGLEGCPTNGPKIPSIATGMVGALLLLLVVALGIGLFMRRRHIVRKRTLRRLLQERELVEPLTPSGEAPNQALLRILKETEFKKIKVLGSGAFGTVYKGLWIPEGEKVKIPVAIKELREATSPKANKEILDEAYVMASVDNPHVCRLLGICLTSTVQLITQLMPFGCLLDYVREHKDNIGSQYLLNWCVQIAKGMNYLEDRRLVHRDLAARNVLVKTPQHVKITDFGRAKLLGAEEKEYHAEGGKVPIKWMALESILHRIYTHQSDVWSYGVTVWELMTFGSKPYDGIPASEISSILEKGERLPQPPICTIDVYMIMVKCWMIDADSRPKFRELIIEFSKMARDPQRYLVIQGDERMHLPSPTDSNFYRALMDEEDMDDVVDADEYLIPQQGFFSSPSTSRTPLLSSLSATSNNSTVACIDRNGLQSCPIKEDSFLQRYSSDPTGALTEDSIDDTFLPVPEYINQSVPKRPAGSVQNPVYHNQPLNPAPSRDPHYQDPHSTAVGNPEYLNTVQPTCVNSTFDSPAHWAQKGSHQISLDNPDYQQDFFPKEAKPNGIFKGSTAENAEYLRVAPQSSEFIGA

Sequence of EGFR^WT (P00533 25-1210): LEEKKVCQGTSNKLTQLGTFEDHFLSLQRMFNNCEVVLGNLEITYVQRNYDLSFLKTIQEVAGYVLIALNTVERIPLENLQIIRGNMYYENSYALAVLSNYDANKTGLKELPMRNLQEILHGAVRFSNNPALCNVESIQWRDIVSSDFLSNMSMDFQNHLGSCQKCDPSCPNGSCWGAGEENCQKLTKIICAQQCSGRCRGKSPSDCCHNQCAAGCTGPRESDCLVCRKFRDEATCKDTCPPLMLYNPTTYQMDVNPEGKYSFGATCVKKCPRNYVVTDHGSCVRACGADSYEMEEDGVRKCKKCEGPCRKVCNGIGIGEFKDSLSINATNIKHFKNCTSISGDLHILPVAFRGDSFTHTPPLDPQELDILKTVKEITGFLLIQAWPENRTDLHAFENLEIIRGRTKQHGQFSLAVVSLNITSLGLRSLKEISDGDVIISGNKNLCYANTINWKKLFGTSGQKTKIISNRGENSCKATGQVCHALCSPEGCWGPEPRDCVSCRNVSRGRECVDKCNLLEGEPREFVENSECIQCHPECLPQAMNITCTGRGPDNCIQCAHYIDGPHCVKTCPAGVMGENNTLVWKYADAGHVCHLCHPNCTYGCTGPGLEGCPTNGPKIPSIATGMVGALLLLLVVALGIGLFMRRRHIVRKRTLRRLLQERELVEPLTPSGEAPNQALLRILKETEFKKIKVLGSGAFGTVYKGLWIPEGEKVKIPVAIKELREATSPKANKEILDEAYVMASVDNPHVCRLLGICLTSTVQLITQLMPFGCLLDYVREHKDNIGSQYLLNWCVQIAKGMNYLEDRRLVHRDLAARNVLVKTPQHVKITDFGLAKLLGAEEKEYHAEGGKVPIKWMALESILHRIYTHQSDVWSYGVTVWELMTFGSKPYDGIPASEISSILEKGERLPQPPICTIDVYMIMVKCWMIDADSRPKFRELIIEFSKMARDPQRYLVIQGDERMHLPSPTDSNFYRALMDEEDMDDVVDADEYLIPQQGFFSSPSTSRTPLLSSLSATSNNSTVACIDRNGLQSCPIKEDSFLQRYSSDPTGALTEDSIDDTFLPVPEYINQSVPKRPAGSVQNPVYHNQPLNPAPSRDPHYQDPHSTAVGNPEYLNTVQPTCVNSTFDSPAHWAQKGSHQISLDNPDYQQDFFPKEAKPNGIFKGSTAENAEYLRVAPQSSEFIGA
Sequence of EGFR^T790M (P00533 25-1210 T790M): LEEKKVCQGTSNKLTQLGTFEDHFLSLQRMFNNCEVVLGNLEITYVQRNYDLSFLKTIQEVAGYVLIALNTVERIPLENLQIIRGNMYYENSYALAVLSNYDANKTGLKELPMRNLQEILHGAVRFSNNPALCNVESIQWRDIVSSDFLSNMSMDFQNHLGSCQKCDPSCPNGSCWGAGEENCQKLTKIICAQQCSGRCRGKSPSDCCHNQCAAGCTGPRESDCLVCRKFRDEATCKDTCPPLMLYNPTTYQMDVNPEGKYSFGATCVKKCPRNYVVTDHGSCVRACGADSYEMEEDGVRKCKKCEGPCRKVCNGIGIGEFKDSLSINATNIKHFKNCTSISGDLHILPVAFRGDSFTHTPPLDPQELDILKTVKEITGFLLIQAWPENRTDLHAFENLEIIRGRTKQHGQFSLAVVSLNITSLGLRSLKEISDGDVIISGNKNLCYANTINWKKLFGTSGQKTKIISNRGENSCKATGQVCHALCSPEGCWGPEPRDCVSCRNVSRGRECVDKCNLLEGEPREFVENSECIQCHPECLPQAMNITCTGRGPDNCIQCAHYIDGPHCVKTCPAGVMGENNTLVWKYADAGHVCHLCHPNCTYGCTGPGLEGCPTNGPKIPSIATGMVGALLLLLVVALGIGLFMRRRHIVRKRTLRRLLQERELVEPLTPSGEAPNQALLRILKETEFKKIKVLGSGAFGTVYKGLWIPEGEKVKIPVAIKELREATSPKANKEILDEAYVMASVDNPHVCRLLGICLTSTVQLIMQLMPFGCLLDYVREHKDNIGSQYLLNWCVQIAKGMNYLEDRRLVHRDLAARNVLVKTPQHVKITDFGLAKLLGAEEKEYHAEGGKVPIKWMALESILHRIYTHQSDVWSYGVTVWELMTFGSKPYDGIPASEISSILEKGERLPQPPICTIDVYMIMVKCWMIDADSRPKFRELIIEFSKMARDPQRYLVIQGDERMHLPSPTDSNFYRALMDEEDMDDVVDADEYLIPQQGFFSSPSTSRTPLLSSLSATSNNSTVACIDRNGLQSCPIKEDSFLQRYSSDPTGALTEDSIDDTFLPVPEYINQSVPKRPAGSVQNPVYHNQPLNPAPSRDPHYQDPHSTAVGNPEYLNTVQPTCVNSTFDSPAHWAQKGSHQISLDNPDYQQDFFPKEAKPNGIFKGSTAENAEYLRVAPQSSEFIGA

Structure (SMILES) | inhibition at 10 µM [1] | inhibition at 10 µM [2] | inhibition at 10 µM [3] | IC50 [4] | inhibition at 10 µM [5] | melting point | inhibition at 10 µM [6] | inhibition at 10 µM [7] | inhibition at 10 µM [8] | inhibition at 10 µM [9] | inhibition at 10 µM [10] | inhibition at 10 µM [11] | inhibition at 10 µM [12] | inhibition at 10 µM [13] | inhibition at 10 µM [14] | inhibition at 10 µM [15] | inhibition at 10 µM [16] | inhibition at 10 µM [17] | inhibition at 10 µM [18] | inhibition at 10 µM [19] | other results
CCOC(=O)C1=C(N)N(c2ccc(Cl)cc2)C2=C(C(=O)CC(C)(C)C2)C1c1ccc(F)cc1 (racemic) [8b, (±)-Ethyl 2-amino-1–(4-chlorophenyl)-4–(4-fluoroyphenyl)-7,7-dimethyl-5-oxo-1,4,5,6,7,8-hexahydroquinoline-3-carboxylate] | < 10% | < 10% | 30% | 186 ± 100 nM | < 10% | 256 to 258 °C | < 10% | 25% | 13% | 21% | < 10% | 26% | < 10% | 34% | < 10% | 13% | < 10% | < 10% | 11% | 14% | inhibition at 10 µM [20]: 20%; inhibition at 10 µM [21]: 21%; inhibition at 10 µM [22]: < 10%; inhibition at 10 µM [23]: 13%; inhibition at 10 µM [24]: 35%; inhibition at 10 µM [25]: 17%; inhibition at 10 µM [26]: < 10%; inhibition at 10 µM [27]: < 10%; inhibition at 10 µM [28]: < 10%; IC50 [29]: 650 ± 4 nM; inhibition at 10 µM [30]: 16%; IC50 [31]: 770 ± 6 nM
CCOC(=O)C1=C(N)N(c2ccc(Cl)cc2)C2=C(C(=O)CC(C)(C)C2)C1c1ccccc1OC (racemic) [6i, (±)-Ethyl 2-amino-1–(4-chlorophenyl)-4–(2-methoxyphenyl)-7,7-dimethyl-5-oxo-1,4,5,6,7,8-hexahydroquinoline-3-carboxylate] | 89% | 27% | 43% | 157 ± 30 nM | 30% | 228 to 230 °C | 38% | 65% | 20% | 12% | 15% | 56% | 32% | 65% | 19% | 12% | 40% | 66% | 44% | 37% | inhibition at 10 µM [20]: 15%; inhibition at 10 µM [21]: 28%; inhibition at 10 µM [22]: 23%; inhibition at 10 µM [23]: 50%; inhibition at 10 µM [24]: 68%; inhibition at 10 µM [25]: 39%; inhibition at 10 µM [26]: < 10%; inhibition at 10 µM [27]: 64%; inhibition at 10 µM [28]: < 10%; IC50 [29]: 450 ± 3 nM; inhibition at 10 µM [30]: 58%; IC50 [31]: 230 ± 1 nM
CCOC(=O)C1=C(N)N(c2ccc(Cl)cc2)C2=C(C(=O)CC(C)(C)C2)C1c1ccccc1Br (racemic) [6f, (±)-Ethyl 2-amino-4–(2-bromophenyl)-1–(4-chlorophenyl)-7,7-dimethyl-5-oxo-1,4,5,6,7,8-hexahydroquinoline-3-carboxylate] | < 10% | < 10% | 40% | 313 ± 120 nM | 14% | 210 to 212 °C | 20% | 47% | 27% | 13% | < 10% | 33% | < 10% | 60% | 31% | 14% | 18% | < 10% | 42% | < 10% | inhibition at 10 µM [20]: < 10%; inhibition at 10 µM [21]: 40%; inhibition at 10 µM [22]: 38%; inhibition at 10 µM [23]: 45%; inhibition at 10 µM [24]: 71%; inhibition at 10 µM [25]: 53%; inhibition at 10 µM [26]: < 10%; inhibition at 10 µM [27]: < 10%; inhibition at 10 µM [28]: < 10%; IC50 [29]: 590 ± 4 nM; inhibition at 10 µM [30]: 25%; IC50 [31]: 480 ± 3 nM
